# Measured values from patent US12544417B2, “Oral film and stick jelly for improving absorption in the oral mucosa, antioxidant activity, anti-inflammatory activity, and liver function of humans and companion animals” (ESTHER FORMULA CO., LTD., priority 2022, dated 2026).
# Assay: DPPH-free radical scavenging
# Assay type: biochemical
# Conditions: ascorbic acid 100 μg/mL, positive control group
# Method: 1% of the oral disintegrating film (Example 1-1), the oral mucosal adhesive film (Example 3-1), and the stick jelly (Example 4-1) were homogeneously dissolved, and centrifuged at 10,000 rpm and at 4° C. for 5 minutes to prepare a CFE (cell-free extract). 3.0 mL of a […] (DPPH) solution (5 mg/100 mL ethanol) was mixed with 500 μL of the prepared CFE, and the same amount of ethanol, MRS solution, and ascorbic acid (100 μg/mL) were used as a control group, a blank, and a comparative group, respectively. Then, the result was mixed with the DPPH solution and incubated in a dark room for 30 minutes, absorbance at 517 nm was measured, and the antioxidant activity was converted into % using Equation 1 below. [formula]
smiles,measurement,value
O=C1O[C@H]([C@@H](O)CO)C(O)=C1O [ascorbic acid],DPPH-free radical scavenging (%),90%
